For one assay, the target named is T1, CYP4S24 (Musca domestica, UniProt T1PEC4).
T1 construct: full length, co-expressed with house fly CPR (MOI 10:1) by baculovirus in Sf9 cells; microsomes; with NADPH--cytochrome P450 reductase
T1 sequence (T1PEC4 1-496): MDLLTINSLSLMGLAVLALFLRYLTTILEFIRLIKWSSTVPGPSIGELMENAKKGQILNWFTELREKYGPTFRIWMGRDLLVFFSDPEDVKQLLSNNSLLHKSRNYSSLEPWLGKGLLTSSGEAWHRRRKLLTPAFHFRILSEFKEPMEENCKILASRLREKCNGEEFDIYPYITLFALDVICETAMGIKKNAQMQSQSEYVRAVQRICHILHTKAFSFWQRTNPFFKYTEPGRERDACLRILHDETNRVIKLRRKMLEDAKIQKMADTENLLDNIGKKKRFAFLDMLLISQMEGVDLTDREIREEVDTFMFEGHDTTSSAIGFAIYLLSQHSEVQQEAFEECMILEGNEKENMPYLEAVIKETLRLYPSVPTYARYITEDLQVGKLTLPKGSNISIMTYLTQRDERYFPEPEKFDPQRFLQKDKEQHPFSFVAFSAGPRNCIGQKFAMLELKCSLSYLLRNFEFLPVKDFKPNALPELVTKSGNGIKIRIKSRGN
T1 sequence (Q07994 1-671 partner): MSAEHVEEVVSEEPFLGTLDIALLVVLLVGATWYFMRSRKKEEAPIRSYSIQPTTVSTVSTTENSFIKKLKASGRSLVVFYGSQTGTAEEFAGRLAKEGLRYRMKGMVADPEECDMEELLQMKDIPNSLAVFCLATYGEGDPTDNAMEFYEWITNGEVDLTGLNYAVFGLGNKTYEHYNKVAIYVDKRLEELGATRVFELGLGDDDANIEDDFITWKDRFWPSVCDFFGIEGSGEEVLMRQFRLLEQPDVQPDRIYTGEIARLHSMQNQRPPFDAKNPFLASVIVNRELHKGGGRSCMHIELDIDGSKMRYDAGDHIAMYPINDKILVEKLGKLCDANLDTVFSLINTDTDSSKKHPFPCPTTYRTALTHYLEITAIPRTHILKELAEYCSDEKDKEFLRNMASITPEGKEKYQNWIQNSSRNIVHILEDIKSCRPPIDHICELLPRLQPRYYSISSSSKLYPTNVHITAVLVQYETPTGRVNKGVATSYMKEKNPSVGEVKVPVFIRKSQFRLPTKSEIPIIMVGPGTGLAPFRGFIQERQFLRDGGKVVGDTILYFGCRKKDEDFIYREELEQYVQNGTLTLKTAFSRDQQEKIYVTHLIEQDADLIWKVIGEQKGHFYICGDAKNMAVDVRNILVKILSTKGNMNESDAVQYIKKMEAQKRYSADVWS
The experiment in a line: HPLC substrate depletion, P450/CPR Sf9 microsomes. The assay is classed as biochemical. The note with it: 0.2 µM P450, NADPH-regenerating system, 0.25 mM MgCl2, pH 7.4, 30 °C, 120 min.

In another assay the target is T2, CYP6A36 (Musca domestica, UniProt Q06S82).
T2 construct: full length, co-expressed with house fly CPR (MOI 10:1) by baculovirus in Sf9 cells; microsomes; with NADPH--cytochrome P450 reductase
T2 sequence (Q06S82 1-507): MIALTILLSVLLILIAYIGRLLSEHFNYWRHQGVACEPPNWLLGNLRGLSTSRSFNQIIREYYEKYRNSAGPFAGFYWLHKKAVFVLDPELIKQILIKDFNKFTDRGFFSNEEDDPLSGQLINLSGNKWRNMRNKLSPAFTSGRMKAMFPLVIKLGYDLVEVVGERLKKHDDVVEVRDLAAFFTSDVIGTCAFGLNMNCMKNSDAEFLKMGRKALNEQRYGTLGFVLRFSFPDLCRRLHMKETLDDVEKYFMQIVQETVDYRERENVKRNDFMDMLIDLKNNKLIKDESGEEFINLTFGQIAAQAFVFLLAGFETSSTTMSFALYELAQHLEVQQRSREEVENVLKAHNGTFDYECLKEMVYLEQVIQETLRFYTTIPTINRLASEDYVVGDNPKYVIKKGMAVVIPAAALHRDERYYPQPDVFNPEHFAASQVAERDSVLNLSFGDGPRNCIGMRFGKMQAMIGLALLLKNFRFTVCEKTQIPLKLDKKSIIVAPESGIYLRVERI
T2 sequence (Q07994 1-671 partner): T1 sequence (Q07994 1-671 partner)
Kind of assay: HPLC substrate depletion, P450/CPR Sf9 microsomes. The assay is classed as biochemical. The note with it: 20 µM cis/trans permethrin mixture, 0.2 µM P450, NADPH-regenerating system, 0.25 mM MgCl2, pH 7.4, 30 °C, 120 min.

Molecules are shown by their SMILES.

This is an account of results in paper PMC9959456, “Multiple-P450 Gene Co-Up-Regulation in the Development of Permethrin Resistance in the House Fly, Musca domestica” (International Journal of Molecular Sciences, 2023).

For the compound `O=Cc1cccc(Oc2ccccc2)c1` [PBald], the “HPLC substrate depletion, P450/CPR Sf9 microsomes” value at CYP4S24 (20 µM PBald) was “CYP4S24 exhibiting the highest ability to metabolize both PBalc and PBald”.

Turning to `OCc1cccc(Oc2ccccc2)c1` [PBalc], the “HPLC substrate depletion, P450/CPR Sf9 microsomes” value on CYP4S24 (20 µM PBalc) is “CYP4S24 exhibiting the highest ability to metabolize both PBalc and PBald”.

As to `CC1(C)C(C=C(Cl)Cl)C1C(=O)OCc1cccc(Oc2ccccc2)c1` (stereo not drawn) [trans-permethrin], the “HPLC substrate depletion, P450/CPR Sf9 microsomes” value on CYP6A36 is “CYP6A36 showed the highest activity toward both trans- and cis-permethrin”.
